According to patent publication US8435762B2, “Chimeric ligand-gated ion channels and methods of use thereof” (Howard Hughes Medical Institute, priority 2008, dated 2013):
Like-named read-outs stand apart in the source and are kept apart here.

How the values were obtained:
α7-5HT3 Q79G L141S [1] = target: T1, α7-5HT3 Q79G L141S (Homo sapiens, UniProt P36544, L141S/M226I/Q79G/T225I); test: fluorescence membrane potential (MP) assay, HEK 293 cells; assay type: cell-based, human/mouse; details: IPD 5HT3, value (s.e.m.)
T1 construct: expressed in transfected cells

[2] = target: T2, α7-5HT3 wt chimeric receptor (Homo sapiens, UniProt P36544, M226I/T225I); test: as above; assay type: cell-based, human/mouse; details: dose response curves, MP assay
T2 construct: expressed in transfected cells; host or cells: HEK 293 cells

α7-5HT3 Q79G L141S [3] = target: T1, α7-5HT3 Q79G L141S; test: whole cell voltage clamp recordings (Iss, Ipeak); assay type: cell-based, human/mouse; details: for EC50: α7 Q79G L141S, IPD 5HT3
α7-5HT3 Q79G [4] = target: T3, α7-5HT3 Q79G (Homo sapiens, UniProt P36544, M226I/Q79G/T225I); test: whole cell voltage clamp recordings (Iss, Ipeak); assay type: cell-based, human/mouse
T3 construct: expressed in transfected cells; host or cells: HEK 293 cells (ATCC CRL-1573)

α7-GlyR Q79G = target: T4, α7-GlyR Q79G (Homo sapiens, UniProt P36544, Q79G); test: whole cell voltage clamp recordings (Iss, Ipeak); assay type: cell-based; details: IPD GlyR
T4 construct: expressed in transfected cells; host or cells: HEK 293 cells

α7-5HT3 Q79G Q139G [5] = target: T5, α7-5HT3 Q79G Q139G (Homo sapiens, UniProt P36544, M226I/Q139G/Q79G/T225I); test: whole cell voltage clamp recordings (Iss, Ipeak); assay type: cell-based, human/mouse
T5 construct: expressed in transfected cells

α7-5HT3 Q79G [6] = target: T3, α7-5HT3 Q79G; test: fluorescence membrane potential (MP) assay, HEK 293 cells; assay type: cell-based, human/mouse
α7-5HT3 Q79G Q139G [7] = target: T5, α7-5HT3 Q79G Q139G; test: as above; assay type: cell-based, human/mouse; details: IPD 5HT3
α7-5HT3 Q79G Q139M = target: T6, α7-5HT3 Q79G Q139M (Homo sapiens, UniProt P36544, M226I/Q139M/Q79G/T225I); test: as above; assay type: cell-based, human/mouse
T6 construct: expressed in transfected cells

[8] = peak current, read-out: EC50-Ipeak
[9] = steady state current, read-out: EC50-Iss
[10] = peak current, IPD 5HT3, read-out: EC50-Ipeak
[11] = steady state current, IPD 5HT3, read-out: EC50-Iss

T1 sequence (P36544 with tags, fused parts or gaps Q79G/L141S/T225I/M226I): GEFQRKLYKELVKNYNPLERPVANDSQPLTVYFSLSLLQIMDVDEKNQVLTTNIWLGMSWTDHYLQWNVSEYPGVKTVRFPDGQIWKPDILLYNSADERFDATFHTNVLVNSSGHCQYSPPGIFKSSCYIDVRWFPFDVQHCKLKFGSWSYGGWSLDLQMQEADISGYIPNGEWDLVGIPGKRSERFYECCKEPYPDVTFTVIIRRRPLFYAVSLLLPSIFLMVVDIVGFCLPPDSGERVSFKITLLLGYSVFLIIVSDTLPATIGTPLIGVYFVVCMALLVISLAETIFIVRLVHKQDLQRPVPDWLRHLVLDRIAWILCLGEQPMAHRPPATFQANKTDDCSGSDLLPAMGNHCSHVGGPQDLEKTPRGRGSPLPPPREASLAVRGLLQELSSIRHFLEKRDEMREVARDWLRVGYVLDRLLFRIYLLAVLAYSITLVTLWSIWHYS
T3 sequence (P36544 with tags, fused parts or gaps Q79G/T225I/M226I): as the sequence (P36544 with tags, fused parts or gaps Q79G/L141S/T225I/M226I) above, with S119L counted along it
T5 sequence (P36544 with tags, fused parts or gaps Q79G/Q139G/T225I/M226I): as the sequence (P36544 with tags, fused parts or gaps Q79G/L141S/T225I/M226I) above, with Q117G, S119L counted along it
T2 sequence (P36544 with tags, fused parts or gaps T225I/M226I): as the sequence (P36544 with tags, fused parts or gaps Q79G/L141S/T225I/M226I) above, with G57Q, S119L counted along it
T6 sequence (P36544 with tags, fused parts or gaps Q79G/Q139M/T225I/M226I): as the sequence (P36544 with tags, fused parts or gaps Q79G/L141S/T225I/M226I) above, with Q117M, S119L counted along it
T4 sequence (P36544 with tags, fused parts or gaps Q79G): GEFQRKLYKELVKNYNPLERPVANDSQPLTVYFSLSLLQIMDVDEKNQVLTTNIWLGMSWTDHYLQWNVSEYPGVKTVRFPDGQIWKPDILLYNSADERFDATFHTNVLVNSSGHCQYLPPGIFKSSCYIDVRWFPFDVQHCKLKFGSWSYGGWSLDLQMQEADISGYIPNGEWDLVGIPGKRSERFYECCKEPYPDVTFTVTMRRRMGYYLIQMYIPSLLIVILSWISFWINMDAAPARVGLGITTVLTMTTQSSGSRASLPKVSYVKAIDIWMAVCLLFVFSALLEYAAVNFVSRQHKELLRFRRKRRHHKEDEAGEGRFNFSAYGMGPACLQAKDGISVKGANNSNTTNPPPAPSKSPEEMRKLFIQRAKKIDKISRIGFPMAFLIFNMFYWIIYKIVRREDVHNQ

Q: What does the source list for `CCCCc1ccc(C(=O)N[C@@H]2CN3CCC2CC3)cc1` [Compound 9S, (S)-4-butyl-N-(quinuclidin-3-yl)benzamide]?
A: EC50 (α7-5HT3 Q79G L141S [1]): 4.1 µM; activity against α7-5HT3 wt (unmodified) receptor [2]: did not induce activate; EC50 (α7-5HT3 Q79G L141S [3]; [8]): 12.3 µM; shift in the efficacy for α7-5HT3 Q79G L141S (α7-5HT3 Q79G L141S [3]; relative to α7-5HT3 Q79G): only slight shift; EC50 (α7-5HT3 Q79G L141S [3]; [9]): 4 µM; EC50 (α7-5HT3 Q79G [4]; [10]): 4.3 µM; EC50 (α7-5HT3 Q79G [4]; [11]): 2.3 µM

Q: Which results are given for `O=C(N[C@@H]1CN2CCC1CC2)c1ccc(C(F)(F)F)cc1` [Compound 22S, (S)—N-(quinuclidin-3-yl)-4-(trifluoromethyl)benzamide]?
A: EC50 (α7-GlyR Q79G; [8]): 7.5 µM; EC50 (α7-GlyR Q79G; [9]): 4.8 µM; EC50 (α7-5HT3 Q79G Q139G [5]; [10]): 11.6 ± 3.6 µM; EC50 (α7-5HT3 Q79G Q139G [5]; [11]): 2.7 ± 1 µM; activity against α7-5HT3 wt (unmodified) receptor [2]: did not induce activate; selectivity for Q79G relative to other mutant receptors (α7-5HT3 Q79G [6]; FIG. 5 dose response curves): selective; EC50 (α7-5HT3 Q79G [6]; read-out: EC50-MP, α7 Q79G, IPD 5HT3, value (s.e.m.)): 0.8 µM; EC50 (α7-5HT3 Q79G Q139G [7]): 3.9 µM; fold improvement in potency (EC50), α7-5HT3 Q79G Q139M relative to α7-5HT3 Q79G (α7-5HT3 Q79G Q139M; EC50MP): 20 fold; EC50 (α7-5HT3 Q79G Q139M; α7 Q79G Q139M, IPD 5HT3, value (s.e.m.), read-out: EC50-MP): 0.06 ± 0.04 µM; EC50 (α7-5HT3 Q79G [4]; [10]): 2.7 µM; EC50 (α7-5HT3 Q79G [4]; [11]): 0.4 µM
